US20260140118A1, “COMBINATION DRUG” (CHUGAI SEIYAKU KABUSHIKI KAISHA, priority 2022, published 2026)
Read-outs that look alike come from different tables or passages of the source. Blank lines part the entries; values can stand above or below the compound they belong to.

Key:
[1] = tested on: FGFR1 or FGF2 knockout cells; assay: Caspase-Glo 3/7 apoptosis assay and Western blotting in FGFR1 or FGF2 knockout cells; type: cell-based, human
Procedure: (§1) Using NEPA21 Electroporation, crRNA and Cas9 protein (Nippon Gene Co., Ltd.) targeting FGFR1 or FGF2 (Fasmac) were introduced into cells, two single clones were isolated from each clone cell with Smart Aliquotor (NT Science, Aichi, Japan), and it was confirmed by the Western blotting analysis that FGFR1 or FGF2 knockout cells lost FGFR1 or FGF2 protein (FIG. 5C).
The FGFR1 or FGF2 knockout cells obtained as described above were seeded on a 384-well plate, and on the following day, a drug was added at an indicated concentration, followed by culturing for an indicated time. The caspase 3 and 7 activity to signal induction of apoptosis in cells was measured using Caspase-Glo 3/7 Assay (Promega) in accordance with the protocol from the manufacturer. […] Each point represents an average+standard deviation from three experiments.

[2] = tested on: NCI-H2228 cells (parental cells); assay: Cell growth suppression test on NCI-H2228 parental cells; type: cell-based, human; conditions: for Sensitivity of NCI-H2228 cells: parental cells; for IC50: Table 3, nine screening hits
Procedure: (§2) Next, for these nine compounds, a cell growth suppression test was conducted, and the ratio of IC50 of DTP cells with respect to the parental line was calculated.

DTP cells [3] = assay: Cell growth suppression test on DTP cells; type: cell-based, human
Procedure: as §2

[4] = tested on: alectinib-resistant NCI-H2228 cells; assay: Cell growth test on alectinib-resistant NCI-H2228 cells; type: cell-based; conditions: Homo sapiens
FGFR1 knockout cells = assay: Cell growth test on FGFR1 knockout cells (CRISPR/Cas9); type: cell-based, human; conditions: two clones
From the text: as §1

Regrown cells = assay: Cell growth suppression test on regrown cells; type: cell-based, human; conditions: DTP cells cultured in alectinib-free medium for 37 days; for IC50: Homo sapiens, Table 4
FGF2 knockout cells = assay: Cell growth test on FGF2 knockout cells (CRISPR/Cas9); type: cell-based, human; conditions: two clones
From the text: as §1

[5] = tested on: NCI-H2228 cells (parental cells); assay: Cell growth suppression test on NCI-H2228 parental cells; type: cell-based; conditions: Homo sapiens
[6] = tested on: SNU-2535 cells excessively expressing FGFR1 and FGF2; assay: Cell growth and Western blotting in SNU-2535 cells excessively expressing FGFR1 and FGF2; type: cell-based, human; conditions: as compared to control cells or cells excessively expressing FGF2
From the text: For further confirming that both FGFR1 and FGF2 are necessary for cell survival in ALK inhibitor treatment, FGFR1 and FGF2 were excessively expressed in SNU2535 cells of ALK fusion gene-positive non-small cell lung cancer (NSCLC) (FIG. 7B).
FGFR1, FGF2, or a human coding sequence (CDS) as a control was synthesized, and cloned downstream of an EF1A promoter in a lentivirus vector with VectorBuilder (Chicago, Illinois, USA), and SNU-2535 cells were infected with a lentivirus vector. After 1 day, the culture solution was cultured in a puromycin-containing medium for 4 days, cells excessively expressing FGFR1 and FGF2 were selected, and clones were isolated with Smart Aliquotor. The expression of FGFR1 or FGF2 protein was confirmed by the Western blotting analysis.

DTP cells [7] = assay: Screening test of anticancer agent library (3114 compounds) for growth suppressive action on DTP cells; type: cell-based, human; conditions: DTP cells from NCI-H2228 treated with alectinib for 13 days
DTP cells [8] = conditions: Western blotting; STAT3, AKT, ERK, S6, FGFR1
Procedure: (§3) The cells were seeded on a 6-well plate, and on the following day, a drug was added, followed by culturing for a certain time. A Sally Sue or Jess capillary electrophoresis-based protein analysis system (ProteinSimple, Santa Clara, CA, USA) was charged with protein lysates in equal amounts for each of Western blotting methods. As the antibody, antibodies to ALK, phospho-ALK, FGFR1, FGFR2, FGFR3, FGFR4, ERK, phospho-ERK, AKT, phospho-AKT, EGFR, phospho-EGFR, MET, β-actin, phospho-MET, HER2, CD44, BIM, VIM, CDH1, S6, pS6 and STAT3 (Cell Signaling Technology, Danvers, MA, USA), Cleaved PARP, phospho-HER2, FGF2 and FGF12 (Abcam) were used.

[9] = tested on: NCI-H2228 cells (parental cells); conditions: Western blotting, STAT3, AKT, ERK, S6
Procedure: as §3

NCI-H2228 tumor = assay: NCI-H2228 subcutaneous xenograft in nude mice; type: in vivo, mouse; conditions: oral administration for 11 days
Procedure: From The Jackson Laboratory Japan, Inc. (Yokohama, Japan), 4 to 5-week-old male BALB/c-nu/nu mice (CAnN Cg-Foxn1/Cr1Cr1j nu/nu) were purchased. Cells were subcutaneously inoculated to the right flank region at 5×10^6 per mouse. The tumor volume and the body weight were measured twice weekly, where the tumor volume was estimated as below. Tumor volume=ab^2/2 (a and b indicate the length and the width of the tumor, respectively. After the establishment of the tumor, the mice were assigned randomly to a solvent administration group, drug administration groups, or a combined administration group identical in dose and schedule to the group receiving each single drug, followed by oral administration for 11 days in a row.

[10] = Homo sapiens, NCI-H2228, NCI-H2228
[11] = NCI-H2228, 192 h, Example 4, treated for 8 days, single or in combination, read-out: IC50, NCI-H2228 Parental cells
[12] = NCI-H2228, FIG. 5D, 5E, read-out: IC50 value, parental cells (comparison to knockout cells)
[13] = Table 4, NCI-H2228, read-out: IC50, Parental cells
[14] = NCI-H2228, Example 5, read-out: IC50 value, NCI-H2228 cells, FGFR inhibitor alone
[15] = Homo sapiens, Table 3, nine screening hits

IC50 [4]: > 1000 nM
Structure (SMILES): CCc1cc2c(cc1N1CCC(N3CCOCC3)CC1)C(C)(C)c1[nH]c3cc(C#N)ccc3c1C2=O.Cl [Alectinib, 9-ethyl-6,6-dimethyl-8-[4-(morpholin-4-yl)-piperidin-1-yl]-11-oxo-6,11-dihydro-5H-benzo[b]carbazole-3-carbonitrile-hydrochloride]
Induction of apoptosis (caspase 3 and 7 activity) in FGFR1 or FGF2 knockout cells as compared to parental cells [1]: enhanced
Action of inhibiting ERK in FGFR1 or FGF2 knockout cells as compared to parental cells ([1]; Western blotting): enhanced
Sensitivity of NCI-H2228 cells [2]: exhibited sensitivity
Sensitivity of DTP cells (DTP cells [3]): did not exhibit sensitivity
IC50 (DTP cells [3]; Homo sapiens, NCI-H2228, 312 h): > 1000 nM
IC50 (FGFR1 knockout cells; [10]): 5.4 nM
IC50 (FGFR1 knockout cells; NCI-H2228): 7.3 nM
Sensitivity of regrown cells as compared to DTP cells (Regrown cells): recovered sensitivity
IC50 (Regrown cells): 480 nM
IC50 (FGF2 knockout cells; [10]): 5.6 nM
IC50 (FGF2 knockout cells; NCI-H2228): 6.1 nM
IC50 [5, 11]: 220 nM
IC50 [5, 12]: 220 nM
IC50 [5, 13]: 220 nM
Cell growth suppressive effect in cells excessively expressing FGFR1 and FGF2 [6]: decreased
Suppressive effect on the amount of phosphorylation of ERK in cells excessively expressing FGFR1 and FGF2 [6]: decreased

Structure (SMILES): COc1cc(OC)cc(N(CCNC(C)C)c2ccc3ncc(-c4cnn(C)c4)nc3c2)c1 [Erdafitinib, N^1-(3,5-dimethoxyphenyl)-N^2-(1-methylethyl)-N^1-[3-(1-methyl-1H-pyrazol-4-yl)-6-quinoxalinyl]-1,2-ethanediamine]
Cell growth suppressive effect on DTP cells among the nine compounds (DTP cells [3]; by ratio of IC50): most potent cell growth suppressive effect

Structure (SMILES): COc1cc(CCc2cc(NC(=O)c3ccc(N4C[C@@H](C)N[C@@H](C)C4)cc3)n[nH]2)cc(OC)c1 [AZD4547, N-(5-(3,5-dimethoxyphenethyl)-1H-pyrazol-3-yl)-4-((3S, 5R)-3,5-dimethylpiperazin-1-yl)benzamide]
IC50 [5, 14]: > 1000 nM

Structure (SMILES): C[C@]12CCC(=O)C=C1CC[C@@H]1[C@@H]2[C@@H](O)C[C@@]2(C)[C@H]1CC[C@]2(O)C(=O)CO [Hydrocortisone]
IC50 ([2]; Homo sapiens, NCI-H2228): > 10000 nM
IC50 (DTP cells [3]; [15]): 2160 nM

Structure (SMILES): C[C@H]1Oc2cc(cnc2N)-c2c(nn(C)c2C#N)CN(C)C(=O)c2ccc(F)cc21 [Lorlatinib, (10R)-7-amino-12-fluoro-2,10,16-trimethyl-15-oxo-10,15,16,17-tetrahydro-2H-4,8-methanepyrazolo[4,3-h][2,5,11]benzoxadiazacyclotetradecine-3-carbonitrile]
IC50 (DTP cells [3]; Homo sapiens, NCI-H2228, 312 h): > 1000 nM
IC50 (FGFR1 knockout cells; [10]): 0.7 nM
IC50 (FGF2 knockout cells; [10]): 0.7 nM
IC50 (FGF2 knockout cells; NCI-H2228): 0.9 nM
IC50 [5, 12]: > 1000 nM
IC50 [5, 13]: 3.8 nM

Structure (SMILES): C[C@]12C=CC(=O)C=C1CC[C@H]1[C@@H]3C[C@@H](O)[C@](O)(C(=O)CO)[C@@]3(C)C[C@H](O)[C@@]12F [Triamcinolone]
IC50 ([2]; Homo sapiens, NCI-H2228): > 10000 nM
IC50 (DTP cells [3]; [15]): 1360 nM

Structure (SMILES): Cc1cc([C@@H](C)Nc2ccccc2C(=O)O)c2nc(N3CCOCC3)cc(=O)n2c1 [AZD6482]
IC50 ([2]; Homo sapiens, NCI-H2228): 9870 nM
IC50 (DTP cells [3]; [15]): 4570 nM
IC50 Ratio of parental to DTP cells (DTP cells [3]; Table 3): 2.2

Structure (SMILES): CN(C)C/C=C/C(=O)Nc1cc2c(Nc3ccc(F)c(Cl)c3)ncnc2cc1O[C@H]1CCOC1 [Afatinib]
IC50 ([2]; Homo sapiens, NCI-H2228): 6430 nM
IC50 (DTP cells [3]; [15]): 5020 nM
IC50 Ratio of parental to DTP cells (DTP cells [3]; Table 3): 1.3

Structure (SMILES): C[C@@H]1C[C@H]2[C@@H]3CCC4=CC(=O)C=C[C@]4(C)[C@@]3(F)[C@@H](O)C[C@]2(C)[C@@]1(O)C(=O)CO [Dexamethasone]
IC50 ([2]; Homo sapiens, NCI-H2228): > 10000 nM
IC50 (DTP cells [3]; [15]): 1320 nM

Structure (SMILES): c1cc(Nc2cc(C3CC3)[nH]n2)nc(Nc2ccc3nc[nH]c3c2)n1 [APY29]
IC50 [2]: 1700 nM
IC50 Ratio of parental to DTP cells (DTP cells [3]; Table 3): 3.8
IC50 (DTP cells [3]; Table 3, nine screening hits): 445 nM
Anti-proliferative effect on DTP cells (DTP cells [7]): 0.68

IC50 [4]: > 1000 nM
Structure (SMILES): CCN1CCN(c2ccc(Nc3cc(N(C)C(=O)Nc4c(Cl)c(OC)cc(OC)c4Cl)ncn3)cc2)CC1 [BGJ398, N′-(2,6-dichloro-3,5-dimethoxyphenyl)-N-[6-[[4-(4-ethyl-1-piperazinyl)phenyl]amino]-4-pyrimidinyl]-N-methyl-urea]
Action of inhibiting the phosphorylation of signal molecules in DTP cells (DTP cells [8]): an action of inhibiting the phosphorylation of FGFR1 and phosphorylation of ERK
Action of inhibiting the phosphorylation of ALK/FGFR1 signal molecules in parental cells [9]: not observed
Sensitivity of NCI-H2228 cells [2]: did not exhibit sensitivity
Sensitivity of DTP cells (DTP cells [3]): exhibited sensitivity
IC50 (DTP cells [3]; Homo sapiens, NCI-H2228, 312 h): 57.8 nM
Sensitivity of regrown cells as compared to DTP cells (Regrown cells): lost sensitivity
IC50 (Regrown cells): > 1000 nM
IC50 [5, 11]: > 1000 nM
IC50 [5, 14]: > 1000 nM
IC50 [5, 13]: > 1000 nM
Tumor growth suppressive effect (NCI-H2228 tumor): did not suppress tumor growth

Structure (SMILES): C=CC(=O)N1CCC(Oc2cc3c(Nc4ccc(Cl)c(Cl)c4F)ncnc3cc2OC)CC1 [Poziotinib]
IC50 ([2]; Homo sapiens, NCI-H2228): 3920 nM
IC50 (DTP cells [3]; [15]): 1390 nM
IC50 Ratio of parental to DTP cells (DTP cells [3]; Table 3): 2.8

Structure (SMILES): COc1cc([C@@H]2c3cc4c(cc3[C@H](O)[C@H]3COC(=O)[C@@H]23)OCO4)cc(OC)c1OC [PPP, picropodophyllin]
Cell growth suppressive effects in parental cells and DTP cells compared (DTP cells [3]; FIGS. 1A and B): substantially equivalent
IC50 (DTP cells [3]; Homo sapiens, NCI-H2228, 312 h): 182 nM
IC50 [5, 13]: 152 nM

Structure (SMILES): CN(C)C/C=C/C(=O)Nc1ccc(C(=O)N2CCC[C@@H](Nc3ncc(Cl)c(-c4c[nH]c5ccccc45)n3)C2)cc1 [THZ531]
IC50 ([2]; Homo sapiens, NCI-H2228): 270 nM
IC50 (DTP cells [3]; [15]): 154 nM
IC50 Ratio of parental to DTP cells (DTP cells [3]; Table 3): 1.8
